This is an account of results in US6399580B1, “Methods and compositions for stimulating tissue growth and epithelial moisturization” (The Regents of the University of California, priority 1994, dated 2002).

Molecules are shown by their SMILES.

Assay type in all cases: in vivo
The target in data set [1] is T1, β-glucocerebrosidase (Mus musculus, UniProt P17439).
T1 construct: from tissue; host or cells: epidermis of hairless mice (Simonsen Laboratories, Gilroy, Calif.)
T1 sequence (P17439 20-515): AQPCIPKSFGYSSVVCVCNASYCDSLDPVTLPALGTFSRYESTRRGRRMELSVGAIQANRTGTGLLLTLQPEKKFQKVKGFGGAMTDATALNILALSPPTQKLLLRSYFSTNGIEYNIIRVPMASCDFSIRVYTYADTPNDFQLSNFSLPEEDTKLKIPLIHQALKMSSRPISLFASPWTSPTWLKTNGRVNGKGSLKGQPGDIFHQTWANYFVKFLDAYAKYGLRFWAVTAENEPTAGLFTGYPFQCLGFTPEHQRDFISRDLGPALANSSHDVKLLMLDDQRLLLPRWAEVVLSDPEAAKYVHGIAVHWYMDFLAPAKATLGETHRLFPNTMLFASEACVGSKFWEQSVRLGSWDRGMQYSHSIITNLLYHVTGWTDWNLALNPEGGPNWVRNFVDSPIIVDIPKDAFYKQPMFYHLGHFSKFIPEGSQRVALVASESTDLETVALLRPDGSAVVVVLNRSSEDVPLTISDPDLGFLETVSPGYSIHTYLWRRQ
The data set can be described thus: Epidermal β-glucocerebrosidase activity after topical BrCBE. As to conditions: topical BrCBE 325 nmol once daily. The procedure:
(§1) To determine whether inhibitors of β-glucocerebrosidase would cause more profound effects than applications of exogenous GlcCER alone (examples 5&6), we next applied the specific, suicide inhibitor, bromoconduritol-B-epoxide (BrCBE) to intact hairless mouse skin (Simonsen Laboratories, Gilroy, Calif.) (Holleran, W. M. et al., J. Clin. Invest. (1993) 91:1656-1664). BrCBE (325 nmol in 20 μl propylene glycol:ethanol, 7:3 vols) was applied once daily for 0-14 days. (Holleran, W. M. et al. (1994) J. Clin. Inv. 93:1756-1764)

Data set [2] deals with intact hairless mouse skin. The data set is described as follows: Transepidermal water loss after topical application. As to conditions: BrCBE 325 nmol topical once daily, after four daily applications. The procedure:
as §1
Transepidermal Water Loss was determined by using a MEECO electrolytic water analyzer (MEECO, Warrington, Pa.). Water loss measurements are recorded over a small area of skin (0.5cm^2) in parts per million/0.5cm^2 per hour over background.

Data set [3] concerns hairless mouse epidermis. The data set can be described thus: Epidermal / stratum corneum lipid content (HPTLC/TLC). The procedure: Hairless mice were treated with BrCBE for 5 days as described in Example 10. The following high performance thin layer chromatograph (HPTLC) system was developed for optimal separation of ceramides and glucosylceramides for quantitation by spectrodensitometry. Extracts were applied to precleaned 10 ×20 cm HPTLC plates, 0.5 cm from lower edge of the plate and fractionated sequentially in a horizontal developmental chamber (Camag, Muttenz, Switzerland) in the following solvent systems: 1) chloroform:methanol:acetic acid (190:9:1), v/v/v) to the top, twice; 2) chloroform:methanol:acetone (76:20:4, by volume) to 30 mm. Between each development, the plate was dried for 5 minutes on a hot plate (40° C.), cooled for 2 minutes, and equilibrated in the tank with the solvents for 3 minutes. After final development, the plates were dried, cooled, dipped in charring solution (1.5% cupric sulfate in acetic acid:sulfuric acid:orthophosphoric acid:water (50:10:10:30, by volume) for 15 seconds, dried (40° .C) for 5 minutes, and then charred at 180° C. for 15 minutes. Plates were scanned with a variable wavelength scanning densitometer (Camag, Muttenz, Switzerland). Lipid amounts for each fraction were estimated using ceramides 3 and 4, and galactosylceramides 1 and 2 as reference standards (Sigma Chemical Co., St. Louis, Mo.).
The epidermal glucosylceramide content was determined in mice treated with the topical β-glucocerebrosidase inhibitors. Mice were treated with CBE for one day as described in FIG. 22. The mice were sacrificed and whole skin was excised. Subcutaneous fascia and fat were scraped off, and the samples were placed dermis side down onto […] EDTA in PBS-CMF (pH 7.4) and incubated at 37° C. for 40 min. Skin was blotted dry with a tissue and the epidermis was removed by scraping with a surgical blade. The epidermis was minced, placed into microcentrifuge vials, immediately snap frozen and stored in liquid N2 until extracted.
For extraction the tissue was soaked in 7.6 ml Bligh/Dyer extraction media (2 ml chloroform, 4 ml Methanol, 1.6 ml H2O) overnight at room temperature. The following day the tissue was shaken for 20 min. and centrifuged for 10 min. the solvent was removed and the pellet was combined with 7.6 ml Bligh/Dyer media and again shaken and centrifuged. The solvents were combined with solvent from the soaks and filtered through pre-solvent-washed Whatman 43 filter paper, 2 ml chloroform and 2 ml H2O was added to each 7.6 ml quantity of the filtrate and shaken for 10 min. The samples were then centrifuged and the upper phase discarded. The lower phase was washed with 4 ml chloroform, 4 ml MetOH, and 3.6 ml H2O (shaken for 10 min and centrifuged). The upper phase was discarded. The lower phase was dried under N2 in a 47° C. water bath. The lipid was resuspended in chloroform and weighed on the Cahn balance.
TLC was performed using 15-20 μg samples and quantitated against standard glycosylceramide and 40 μg sample for sphingolipids (Holleran, W. M. et al. (1993) J. Clin. Invest. 91:1656-1664).
Both glucosylceramide and ceramide content was then determined in lower (stratum basale) and upper (stratum spinosum, stratum granulosum and stratum corneum) epidermis (FIG. 23). Following 24 hours of CBE treatment samples were excised following treatment (as in Example 16).

For data set [4], the system named is hairless mouse skin. The data set can be described thus: Appearance and texture of treated skin. The procedure: as §1
[5] abbreviates: BrCBE 325 nmol/5cm^2/day, five days.

Turning to `OC1C(O)C(Br)C2OC2C1O` (stereo not shown) [BrCBE, bromoconduritol-B-epoxide], in data set [1], the “epidermal β-glucocerebrosidase activity, of normal” value is on record as 5 % of normal and the “reduction of epidermal β-glucocerebrosidase activity” value was “about 95%”. In data set [2], the “TEWL plateau level (defect in permeability barrier function)” value is 10-15 times normal. Also, in data set [3] (setting [5]), the “ceramide content, whole epidermis lipid extracts” value is “decrease” and the “epidermal glucosylceramides, whole epidermis lipid extracts” value was “increased”. In addition, in data set [3] (BrCBE 5 days, vs vehicle-treated and/or untreated murine stratum corneum, FIG. 14), the “increase in stratum corneum glucosylceramides” value was “eight to ten”. Besides, in data set [4] (BrCBE-treated skin), the inflammation or edema result is “no indication of inflammation or edema”; the skin moisture content result was “increased moisture content”; the “skin smoothness and softening of skin surface” value is “marked increase”. For the same molecule, the skin wrinkling result in data set [4] (BrCBE-treated vs vehicle-treated skin, visual inspection) is listed as “reduced”.
